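Tested at 5 concentrations; 48 h exposure; 96-well plates; endpoints linearly interpolated, else capped at highest concentration. GI50 = concentration required for 50% inhibition of growth.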 Calls of active or inactive are those of the source. Cut-off read from the data, not from the text of the source: active = GI50 up to about 1.1 µM and inactive = higher.
How the values were obtained:
Test in all cases: NCI anticancer screen, dose series, 48 h
SF-268 = tested on: SF-268
U-251 = tested on: U-251
786-0 = tested on: 786-0
SF-295 = tested on: SF-295
OVCAR-8 = tested on: OVCAR-8
UACC-62 = tested on: UACC-62
COLO 205 = tested on: COLO 205
SK-OV-3 = tested on: SK-OV-3
NCI-H23 = tested on: NCI-H23
RPMI-8226 = tested on: RPMI-8226
Hs-578T = tested on: Hs-578T
EKVX = tested on: EKVX
SR = tested on: SR
M14 = tested on: M14
OVCAR-3 = tested on: OVCAR-3
T47D = tested on: T47D
HOP-62 = tested on: HOP-62
OVCAR-4 = tested on: OVCAR-4
K562 = tested on: K562
NCI/ADR-RES = tested on: NCI/ADR-RES

Measured: GI50

O=C1NN(c2ccccc2)C(=O)C2C3c4ccccc4C(c4ccccc43)C12 (stereo not given)
inactive: SF-268 > 100 µM | U-251 > 100 µM | 786-0 > 100 µM | SF-295 80 µM | OVCAR-8 > 100 µM | UACC-62 > 100 µM | COLO 205 78.2 µM | SK-OV-3 > 100 µM | NCI-H23 > 100 µM | RPMI-8226 > 100 µM | Hs-578T 83.2 µM | EKVX > 100 µM | SR > 100 µM | M14 > 100 µM | OVCAR-3 > 100 µM | T47D 44.4 µM | HOP-62 56.8 µM | OVCAR-4 60 µM | K562 43.2 µM | NCI/ADR-RES > 100 µM

O=C1C(=O)N(c2cccc(C(F)(F)F)c2)C(=O)C(=O)C1c1nc2ccccc2s1
inactive: SF-268 98.2 µM | U-251 62.4 µM | 786-0 72.3 µM | SF-295 65.3 µM | OVCAR-8 20.2 µM | UACC-62 > 100 µM | COLO 205 > 100 µM | SK-OV-3 > 100 µM | NCI-H23 > 59.7 µM | RPMI-8226 > 80 µM | Hs-578T > 100 µM | EKVX > 100 µM | SR 36.3 µM | M14 98.2 µM | OVCAR-3 48.6 µM | T47D > 100 µM | HOP-62 64.9 µM | OVCAR-4 > 92.5 µM | K562 51.2 µM | NCI/ADR-RES 45.2 µM

N#CC1=C(N)OC(c2ccc([N+](=O)[O-])cc2)C1(C#N)C#N (stereo not given)
inactive: SF-268 23.3 µM | U-251 25.4 µM | 786-0 9.66 µM | SF-295 33.7 µM | OVCAR-8 17.5 µM | UACC-62 8.71 µM | COLO 205 5.94 µM | SK-OV-3 26.2 µM | NCI-H23 15.3 µM | RPMI-8226 7.78 µM | Hs-578T 25.9 µM | EKVX 14.2 µM | SR 3.97 µM | M14 16.7 µM | OVCAR-3 > 10 µM | T47D 18.4 µM | HOP-62 20.7 µM | OVCAR-4 17.8 µM | K562 37.8 µM | NCI/ADR-RES 19.6 µM

Cc1cnc2sn(-c3ccc([N+](=O)[O-])cc3)c(=O)c2c1
inactive: SF-268 54.1 µM | U-251 30.1 µM | 786-0 56.8 µM | SF-295 45.3 µM | OVCAR-8 43 µM | UACC-62 64.7 µM | COLO 205 > 100 µM | SK-OV-3 29 µM | NCI-H23 42.9 µM | RPMI-8226 > 100 µM | Hs-578T 53.5 µM | EKVX 74.1 µM | SR > 100 µM | M14 > 100 µM | OVCAR-3 36.1 µM | T47D > 100 µM | HOP-62 14.9 µM | OVCAR-4 94.8 µM | K562 > 100 µM | NCI/ADR-RES > 100 µM

COC(=O)CCc1ccc2c(c1)CC1(C2)Cc2ccc3c(c2C1)CCC3 (stereo not given)
inactive: SF-268 > 100 µM | U-251 > 100 µM | 786-0 69.8 µM | SF-295 > 100 µM | OVCAR-8 46.2 µM | UACC-62 23.6 µM | COLO 205 80.4 µM | SK-OV-3 30.4 µM | NCI-H23 50.6 µM | RPMI-8226 31.3 µM | Hs-578T 99.1 µM | EKVX > 100 µM | SR > 100 µM | M14 59.2 µM | OVCAR-3 > 100 µM | T47D 18.8 µM | HOP-62 > 100 µM | OVCAR-4 49.1 µM | K562 38.7 µM | NCI/ADR-RES > 100 µM

CCOC(=O)c1c(SCCN2CCCC2)n(-c2ccccc2)c(=S)n(-c2ccccc2)c1=O
active: SR 0.457 µM
inactive: SF-268 4.85 µM | U-251 6.14 µM | 786-0 1.55 µM | SF-295 28.3 µM | OVCAR-8 1.95 µM | UACC-62 2.79 µM | COLO 205 1.84 µM | SK-OV-3 18.1 µM | NCI-H23 9.57 µM | RPMI-8226 2.18 µM | Hs-578T 4.7 µM | EKVX 13.9 µM | M14 1.75 µM | OVCAR-3 1.78 µM | T47D 2.72 µM | HOP-62 18.5 µM | OVCAR-4 13.1 µM | K562 2.12 µM | NCI/ADR-RES 25.8 µM

O=C(NCCCCCCNC(=O)c1cc(-c2ccccc2)nc2ccccc12)c1cc(-c2ccccc2)nc2ccccc12
inactive: SF-268 > 100 µM | U-251 88.3 µM | 786-0 31.6 µM | SF-295 84.7 µM | OVCAR-8 > 100 µM | UACC-62 > 100 µM | COLO 205 > 100 µM | SK-OV-3 > 100 µM | NCI-H23 > 100 µM | RPMI-8226 > 100 µM | Hs-578T 40.6 µM | EKVX > 100 µM | SR > 100 µM | M14 > 100 µM | OVCAR-3 > 100 µM | T47D > 100 µM | HOP-62 54.3 µM | OVCAR-4 > 100 µM | K562 > 100 µM | NCI/ADR-RES > 100 µM

CCCCCc1c(CCCC)c(=O)[nH]c2cc(CNCC(OC)OC)ccc12
inactive: SF-268 16.7 µM | U-251 10.8 µM | 786-0 4.47 µM | SF-295 17.2 µM | OVCAR-8 16.3 µM | UACC-62 5.85 µM | COLO 205 2.41 µM | SK-OV-3 18.1 µM | NCI-H23 17.4 µM | RPMI-8226 4.08 µM | Hs-578T 18.5 µM | EKVX 16.2 µM | SR 6.9 µM | M14 2.81 µM | OVCAR-3 17.3 µM | T47D 15.5 µM | HOP-62 18.2 µM | OVCAR-4 14.7 µM | K562 1.9 µM | NCI/ADR-RES 12.4 µM

c1ccc(Nc2nnc(Cn3ccc4ccccc43)s2)cc1
inactive: SF-268 56.8 µM | U-251 42.4 µM | 786-0 52.7 µM | SF-295 15.9 µM | OVCAR-8 64.6 µM | UACC-62 88.5 µM | COLO 205 45.1 µM | SK-OV-3 > 100 µM | NCI-H23 > 100 µM | RPMI-8226 48.5 µM | Hs-578T 65.6 µM | EKVX 50.8 µM | SR 12.8 µM | M14 59.8 µM | OVCAR-3 24.5 µM | T47D 27.7 µM | HOP-62 29.9 µM | OVCAR-4 36.8 µM | K562 31.2 µM | NCI/ADR-RES 34.6 µM

c1ccc2c(c1)nc1n2CCCn2ccnc2-1
inactive: SF-268 > 100 µM | U-251 > 100 µM | 786-0 > 100 µM | SF-295 > 100 µM | OVCAR-8 67.5 µM | UACC-62 > 100 µM | COLO 205 > 100 µM | NCI-H23 > 100 µM | RPMI-8226 > 100 µM | Hs-578T > 100 µM | EKVX 43 µM | SR > 100 µM | M14 > 100 µM | OVCAR-3 > 100 µM | T47D 57.3 µM | HOP-62 > 100 µM | OVCAR-4 > 100 µM | K562 > 100 µM | NCI/ADR-RES 27 µM
active: SK-OV-3 0.0137 µM
